{"source": "patent US11951190B2", "about": "“Use of labeled inhibitors of prostate specific membrane antigen (PSMA), as agents for the treatment of prostate cancer” (DEUTSCHES KREBSFORSCHUNGSZENTRUM, priority 2013, dated 2024)", "key": {"[1]": {"molecular_target": "T1, PSMA expressing cell line LNCaP (Homo sapiens, UniProt Q04609)", "T1 construct": "using the PSMA expressing cell line LNCaP; host or cells: LNCaP", "T1 sequence (Q04609 whole entry)": "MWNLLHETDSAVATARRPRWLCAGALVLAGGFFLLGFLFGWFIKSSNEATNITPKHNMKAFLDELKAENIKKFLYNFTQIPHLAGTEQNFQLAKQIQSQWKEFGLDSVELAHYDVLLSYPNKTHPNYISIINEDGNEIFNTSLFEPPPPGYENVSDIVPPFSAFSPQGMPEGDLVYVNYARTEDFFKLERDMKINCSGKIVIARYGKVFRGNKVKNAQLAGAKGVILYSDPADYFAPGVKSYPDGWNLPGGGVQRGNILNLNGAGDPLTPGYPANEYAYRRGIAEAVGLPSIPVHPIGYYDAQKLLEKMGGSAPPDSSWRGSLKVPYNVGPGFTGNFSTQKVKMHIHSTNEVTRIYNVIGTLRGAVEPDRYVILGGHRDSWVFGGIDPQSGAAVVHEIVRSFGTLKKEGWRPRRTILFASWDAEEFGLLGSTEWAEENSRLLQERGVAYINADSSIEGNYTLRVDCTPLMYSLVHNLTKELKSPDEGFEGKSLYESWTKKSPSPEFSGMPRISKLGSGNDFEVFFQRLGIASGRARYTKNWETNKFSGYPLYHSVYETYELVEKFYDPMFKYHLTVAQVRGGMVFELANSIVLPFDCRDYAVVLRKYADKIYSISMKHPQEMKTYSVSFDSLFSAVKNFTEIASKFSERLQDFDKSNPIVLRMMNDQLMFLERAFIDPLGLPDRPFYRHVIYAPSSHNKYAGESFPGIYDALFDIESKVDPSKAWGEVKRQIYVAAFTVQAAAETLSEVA", "assay": "Competitive cell binding assay (68Ga-labeled [Glu-urea-Lys(Ahx)]2-HBED-CC radioligand)", "details": "LNCaP cells, competition with 68Ga-labeled [Glu-urea-Lys(Ahx)]2-HBED-CC", "description": "(§1) In order to compare the series of novel compounds the competitive binding affinity and the specific internalization was analyzed using the PSMA expressing cell line LNCaP. To determine specific cellular uptake, cells were blocked with 2-(phosphonomethyl)-pentanedioic acid (PMPA). The inhibition potency was also investigated by the enzyme-based NAALADase assay.\n(§2) For binding studies and in vivo experiments LNCaP cells (metastatic lesion of human prostatic adenocarcinoma, ATCC CRL-1740) were cultured in RPMI medium supplemented with 10% fetal calf serum and Glutamax (PAA, Austria). During cell culture, cells were grown at 37° C. in an incubator with humidified air, equilibrated with 5% CO2. The cells were harvested using trypsin-ethylenediaminetetraacetic acid (trypsin-EDTA; 0.25% trypsin, 0.02% EDTA, all from PAA, Austria) and washed with PBS.\nThe competitive cell binding assay and internalization experiments were performed as described previously (Eder et al. 2012)."}, "LNCaP cells": {"system": "LNCaP cells", "assay": "Specific cell uptake and internalization", "format": "cell-based, human", "details": "45 min", "description": "as §1, §2\nTo determine the specific cell uptake and internalization, 10^5 cells were seeded in poly-L-lysine coated 24-well cell culture plates 24 h before incubation. After washing, the cells were incubated with 25 nM of the radiolabeled compounds for 45 min at 37° C. and at 4° C., respectively. Specific cellular uptake was determined by competitive blocking with 2-(phosphonomethyl)pentanedioic acid (500 μM final concentration, PMPA, Axxora, Loerrach, Germany). Cellular uptake was terminated by washing 4 times with 1 mL of ice-cold PBS. Cells were subsequently incubated twice with 0.5 mL glycine-HCl in PBS (50 mM, pH=2.8) for 5 min to remove the surface-bound fraction. The cells were washed with 1 mL of ice-cold PBS and lysed using 0.3 N NaOH (0.5 mL). The surface-bound and the internalized fractions were measured in a gamma counter. The cell uptake was calculated as percent of the initially added radioactivity bound to 10^6 cells [% ID/10^6 cells]."}, "LNCaP tumor xenografts [2]": {"system": "LNCaP tumor xenografts", "assay": "Dynamic microPET imaging", "format": "in vivo, athymic male nude mice", "details": "68Ga-labeled", "description": "Whole-body coronal microPET images of an athymic male nude mice bearing LNCaP tumor xenografts. […] Approximately 15 MBq/mouse were injected. […] The values are expressed as mean SUV (standardized uptake values).\nFor the microPET studies, 10-25 MBq of the radiolabeled compounds in a volume of 0.15 ml (˜0.5 nmol) were injected via a lateral tail vein into mice bearing LNCaP tumor xenografts. The anesthetized animals (2% sevoflurane, Abbott, Wiesbaden, Germany) were placed in prone position into the Inveon small animal PET scanner (Siemens, Knoxville, Tn., USA) to perform dynamic microPET scans and 20 min-static scans; c.f. FIG. 1, 3, 5-14"}, "LNCaP tumor xenografts [3]": {"system": "LNCaP tumor xenografts", "assay": "Biodistribution / organ distribution in LNCaP tumor-bearing mice", "format": "in vivo, BALB/c nu/nu mice", "details": "for PSMA-specific uptake (organ distribution): 68Ga labeled, 1 h post injection of 0.06 nmol, blocking with 2 mg/kg 2-PMPA", "description": "FIG. 2: Organ Distribution at 1 h post injection. […] Data are expressed as mean % ID/g tissue±SD (n=3).\nThe favourable pharmacokinetics led to extremely high tumor-to-background ratios (Tumor/Blood: 1058; Tumor/Muscle: 529) after 24 hours\n7- to 8-week-old male BALB/c nu/nu mice (Charles River Laboratories) were subcutaneously inoculated into the right trunk with 5×10^6 cells of LNCaP (in 50% Matrigel; Becton Dickinson, Heidelberg, Germany). The tumors were allowed to grow until approximately 1 cm3 in size. The radiolabeled compounds were injected into the tail vein (approx. 1 MBq per mouse; 0.06 nmol). […] Organs of interest were dissected, blotted dry, and weighed. The radioactivity was measured using a gamma counter and calculated as % ID/g."}, "[4]": {"details": "for Ga-68, 25 nM radiolabeled compound"}, "[5]": {"details": "177Lu-labeled, 24 h post injection of 0.06 nmol, n=5"}}, "data": [{"compound": "O=C(O)CC[C@H](NC(=O)N[C@@H](CCCCNC(=O)[C@@H](Cc1ccc2ccccc2c1)NC(=O)[C@H]1CC[C@H](CNC(=O)CN2CCN(CC(=O)O)CCN(CC(=O)O)CCN(CC(=O)O)CC2)CC1)C(=O)O)C(=O)O", "note": "[MB17.D]", "values": [{"measurement": "IC50", "setting": "[1]", "value": "12.4 ± 5.1", "unit": "nM"}]}, {"compound": "O=C(O)CCC(NC(=O)NC(CCCCNC(=O)C(Cc1ccc2ccccc2c1)NC(=O)CCCCCNC(=O)CN1CCN(CC(=O)O)CCN(CC(=O)O)CCN(CC(=O)O)CC1)C(=O)O)C(=O)O", "note": "(stereo not drawn) [MB25]", "values": [{"measurement": "IC50", "setting": "[1]", "value": 6.64, "unit": "nM"}]}, {"compound": "O=C(O)CC[C@H](NC(=O)N[C@@H](CCCCNC(=O)c1ccc(CNC(=O)c2ccc(CNC(=O)c3ccc(CNC(=O)CN4CCN(CC(=O)O)CCN(CC(=O)O)CCN(CC(=O)O)CC4)cc3)cc2)cc1)C(=O)O)C(=O)O", "note": "[MB4]", "values": [{"measurement": "Internalization", "setting": "LNCaP cells; [4]", "value": "14.18 ± 0.98", "unit": "for Ga-68 % IA/10^6 cells"}, {"measurement": "IC50", "setting": "[1]", "value": "0.74 ± 0.5", "unit": "nM"}]}, {"compound": "O=C(O)CCC(NC(=O)NC(CCCCNC(=O)C(Cc1ccc2ccccc2c1)NC(=O)c1ccc(CNC(=O)CN2CCN(CC(=O)O)CCN(CC(=O)O)CCN(CC(=O)O)CC2)cc1)C(=O)O)C(=O)O", "note": "(stereo not drawn) [MB24]", "values": [{"measurement": "IC50", "setting": "[1]", "value": 3.33, "unit": "nM"}]}, {"compound": "O=C(O)CC[C@H](NC(=O)N[C@@H](CCCCNC(=O)C1CCC(CNC(=O)C(Cc2ccc3ccccc3c2)NC(=O)CN2CCN(CC(=O)O)CCN(CC(=O)O)CCN(CC(=O)O)CC2)CC1)C(=O)O)C(=O)O", "note": "(stereo partly drawn) [MB35]", "values": [{"measurement": "IC50", "setting": "[1]", "value": 26.2, "unit": "nM"}]}, {"compound": "O=C(O)CCC(NC(=O)NC(CCCCNC(=O)C1CCC(CNC(=O)CN2CCN(CC(=O)O)CCN(CC(=O)O)CCN(CC(=O)O)CC2)CC1)C(=O)O)C(=O)O", "note": "(stereo not drawn) [MB22]", "values": [{"measurement": "IC50", "setting": "[1]", "value": 52.8, "unit": "nM"}]}, {"compound": "O=C(O)CCC(NC(=O)NC(CCCCNC(=O)c1ccc(CNC(=O)c2ccc(CNC(=O)c3ccc(CNC(=O)c4ccc(CNC(=O)CN5CCN(CC(=O)O)CCN(CC(=O)O)CCN(CC(=O)O)CC5)cc4)cc3)cc2)cc1)C(=O)O)C(=O)O", "note": "(stereo not drawn) [MB10]", "values": [{"measurement": "IC50", "setting": "[1]", "value": "8.67 ± 1.58", "unit": "nM"}]}, {"compound": "O=C(O)CC[C@H](NC(=O)N[C@@H](CCCCNC(=O)[C@H](Cc1ccc2ccccc2c1)NC(=O)[C@H]1CC[C@H](CNC(=O)CN2CCN(CC(=O)O)CCN(CC(=O)O)CCN(CC(=O)O)CC2)CC1)C(=O)O)C(=O)O", "note": "[MB17]", "values": [{"measurement": "Internalization", "setting": "LNCaP cells; [4]", "value": "17.02 ± 4.36", "unit": "for Ga-68 % IA/10^6 cells"}, {"measurement": "Internalization", "setting": "LNCaP cells; for Lu-177, 25 nM radiolabeled compound", "value": "17.51 ± 3.99 for Lu-177 % IA/10^6 cells"}, {"measurement": "background clearance and kidney enrichment in PET diagrams", "setting": "LNCaP tumor xenografts [2]; after 2 hours", "value": "rapid background clearance as well as a substantial reduction of the enrichment in the kidney"}, {"measurement": "time of maximum kidney uptake (highest point in the time-activity-curve)", "setting": "LNCaP tumor xenografts [2]; dynamic PET, after injection of the radiotracer", "value": 15, "unit": "min"}, {"measurement": "PSMA-specific uptake (organ distribution)", "setting": "LNCaP tumor xenografts [3]; 2 mg/kg", "value": "PSMA-specific uptake in the tumor and the kidneys"}, {"measurement": "PSMA-specific uptake (organ distribution)", "setting": "LNCaP tumor xenografts [3]; listed as MB 17, 2 mg/kg", "value": "high PSMA-specific tumor uptake"}, {"measurement": "kidney uptake", "setting": "LNCaP tumor xenografts [3]; [5]", "value": "2.13±1.36", "unit": "% ID/g"}, {"measurement": "liver uptake", "setting": "LNCaP tumor xenografts [3]; [5]", "value": "0.08±0.03", "unit": "% ID/g"}, {"measurement": "lung uptake", "setting": "LNCaP tumor xenografts [3]; [5]", "value": "0.11±0.13", "unit": "% ID/g"}, {"measurement": "spleen uptake", "setting": "LNCaP tumor xenografts [3]; [5]", "value": "0.13±0.05", "unit": "% ID/g"}, {"measurement": "tumor uptake", "setting": "LNCaP tumor xenografts [3]; [5]", "value": "10.58±4.50", "unit": "% ID/g"}]}, {"compound": "O=C(O)CC[C@H](NC(=O)N[C@@H](CCCCNC(=O)C1CCC(CNC(=O)C2CCC(CNC(=O)CN3CCN(CC(=O)O)CCN(CC(=O)O)CCN(CC(=O)O)CC3)CC2)CC1)C(=O)O)C(=O)O", "note": "(stereo partly drawn) [MB31]", "values": [{"measurement": "IC50", "setting": "[1]", "value": 91.8, "unit": "nM"}]}, {"compound": "O=C(O)CCC(NC(=O)NC(CCCCNC(=O)c1ccc(CNC(=O)c2ccc(CNC(=O)CN3CCN(CC(=O)O)CCN(CC(=O)O)CCN(CC(=O)O)CC3)cc2)cc1)C(=O)O)C(=O)O", "note": "(stereo not drawn) [MB3]", "values": [{"measurement": "IC50", "setting": "[1]", "value": "10.5 ± 6.06", "unit": "nM"}]}, {"compound": "O=C(O)CC[C@H](NC(=O)N[C@@H](CCCCNC(=O)C1CCC(CNC(=O)c2ccc(CNC(=O)CN3CCN(CC(=O)O)CCN(CC(=O)O)CCN(CC(=O)O)CC3)cc2)CC1)C(=O)O)C(=O)O", "note": "(stereo partly drawn) [MB33]", "values": [{"measurement": "IC50", "setting": "[1]", "value": 59.3, "unit": "nM"}]}, {"compound": "O=C(O)CCC(NC(=O)NC(CCCCNC(=O)c1ccc(CNC(=O)CN2CCN(CC(=O)O)CCN(CC(=O)O)CCN(CC(=O)O)CC2)cc1)C(=O)O)C(=O)O", "note": "(stereo not drawn) [MB2]", "values": [{"measurement": "Internalization", "setting": "LNCaP cells; [4]", "value": "8.78 ± 3.96", "unit": "for Ga-68 % IA/10^6 cells"}, {"measurement": "IC50", "setting": "[1]", "value": "2.75 ± 0.82", "unit": "nM"}]}]}
